Where two headings read alike, the source gives them in different places. Marks after values point to notes of the source that are not given here.
Columns and labels:
uridine/cytidine kinase = test: Competition assay for substrates of uridine/cytidine kinase, crude extracts of T24 cells; assay type: biochemical, human
Description: 2 mM dithiothreitol (DTT) and 0.5 mM phenylmethylsulfanyl fluoride were added just before extraction. The tissue sample was homogenized in a Dounce glass homogenizer and then sonicated for 3 five-second pulses in a Branson Sonifier with a micro-tip at 25 KHz to disrupt the cells. During homogenization and sonication the extract was kept cold throughout the procedures. The tissue extract was then centrifuged at 14,000×g at 4° C. for 15 min., and the supernatant (the crude enzyme extract) was removed. The supernatant was sheared 20 times on ice utilizing a 1 cc syringe with a 27 G½ needle to reduce viscosity. […] 2 mM DTT and 340 μM H4U were added just before the assay. Finally, to the reaction mixture, 5 μl 200 mM creatine phosphate and creatine phosphokinase (0.5 unit/μl) was added to 150 μl of the section mixture. […] H2O bath for 1 minute before 20 μl of the crude enzyme extract was added to initiate the reaction. […] At 0, 30 and 60 minutes the reaction mixture, divided in separate tubes, was heated in a boiling water bath for 2 minutes to terminate the reaction. Denatured protein was then removed by centrifugation of the sample for 2 minutes at 14,000×g. The amount of nucleotide formed was determined by spotting 20 μl aliquots of the reaction mixture onto DE-81 2.2 cm Whatman filter discs. After air drying, the unphosphorylated substrate nucleoside was removed by washing twice for 10 min. in 20 mM ammonium formate and twice for 5 min. in deionized H2O with gentle stirring. A control, lacking the crude enzyme extract was included with each determination. The washed papers were dried under a heat lamp and then placed into individual scintillation vials, eluted for 30 min. in 1 ml of 0.1M HCl-0.1M KCL and then vortexed in 5 ml of scintillation fluid and counted. Enzyme activity was expressed as pmoles/min/mg protein.
When uridine was utilized as substrate, benzacyclouridine was added to prevent the catabolism of the substrate by uridine phosphorylase and tetrahydrouridine was omitted.

cytidine deaminase (CD) = target: T1, cytidine deaminase (CD) (Homo sapiens, UniProt P32320); test: Competition assay for substrates of cytidine deaminase, crude extracts of PC-3 cells; assay type: biochemical; details: for substrate for cytidine deaminase (in words): competition studies, human tumor cell extracts; for % Inhibition (CD) / inhibition at 250 µM: competitor 250 μM; for % Inhibition (CD) / inhibition at 250 µM / inhibition: ratio 10, PC-3 extracts
T1 construct: Crude extracts of PC-3 cells in culture were prepared as described above; endogenous in cells; host or cells: PC-3 cells (crude extract supernatant)
T1 sequence (P32320 whole entry): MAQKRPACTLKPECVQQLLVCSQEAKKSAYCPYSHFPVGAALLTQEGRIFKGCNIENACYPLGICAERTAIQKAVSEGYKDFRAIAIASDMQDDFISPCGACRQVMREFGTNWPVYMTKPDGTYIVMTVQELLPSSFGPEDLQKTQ
Description: The crude enzyme extract (the supernatant of a 10 minute 14,000×g centrifugation) was then added. When cytidine was used as substrate, assays were conducted with benzacyclouridine to inhibit uridine phosphorylases. […] After 0, 15, and 30 minutes, the reaction was stopped and denatured protein removed as above for dC Kinase. […] Aliquots were then spotted on PE cellulose TLC sheets and the reactants separated with a solvent system composed of isopropanol:HCl:H2O (170:41:39). […] The nucleosides were visualized under U.V. light and the spots cut out and counted. […] Enzyme activity was expressed as nmole formed in 30 min/mg/protein.
Competition assays to determine Substrate Specificity: Crude extracts of PC-3 cells in culture were prepared as described above. Two concentrations of crude extract were utilized for the studies as determined from the analysis of protein.
The assays were run for 0, 15, and 30 minutes.

PC-3 cells [1] = test: Cytotoxicity (clonogenic) assay, 72 h drug exposure; assay type: cell-based, human
Description: (§1) Toxicity and Radiation Studies: The methods using clonogenic assays described by Perez and Greer (Int. J. Rad. Oncology: Biology, Physics 12, 1523-1527, 1986—incorporated herein by reference in its entirety) were followed.
Cytotoxicity Assays: 5×10^5 cells were plated in 60 mm tissue culture dishes in 5 mls of the optimal growth media for the particular cell line in an humidified 95% air-5% CO2 atmosphere. The plates were incubated for 18-20 hours to allow for attachment and log-phase growth to begin. At the end of this period the growth medium was aspirated and replaced with […]. Four times (4×) concentrated solutions were prepared and then 1 ml was added to the plates; and growth media were then added to a total volume of […]. The plates were then incubated for 72 hours and the cells harvested by trypsinization. The cells were then serially diluted in growth medium replated into 60 mm dishes and incubated for 6 to 9 days depending on the cell line. After this incubation period, the media was aspirated and the colonies were washed twice with a PBS solution. The colonies were then stained with a 0.2% crystal violet-20% ethanol solution for 5 min. the stain was removed, the colonies were washed and air dried. A viable colony was one consisting of 25 or more normal appearing cells and was considered to have arisen from a single cell. The colonies were counted under a dissecting microscope. Two to three dilutions for every condition were plated. Dishes containing 30-300 colonies were used in the calculation and all conditions were done in duplicate.

PC-3 cells [2] = test: Radiosensitization of cells in culture (Cobalt 60, clonogenic survival); assay type: cell-based, human; details: for effect of tetrahydrouridine (H4U) on radiosensitization (in words) / effect of thymidine on radiosensitization (in words): cells in culture
Description: as §1
Irradiation of Cells in Culture: 2×10^5 cells were plated in 25 cm^2 flasks and grown for 18 hr at 37° C. in a humidified 5% CO2 atmosphere. The medium was then removed and replaced with medium containing the appropriate drug concentrations and incubated for 72 hrs then removed and the cell monolayers were rinsed twice with PBS. The flasks were then filled with 50 ml of radiation medium (3 parts RPMI 1640 and 7 parts PBS plus antibiotics and glutamine). The cells were then irradiated using a Cobalt 60 irradiator. The cell monolayers were placed 35 cm away from the source and irradiated for appropriate times according to the dose rate. The dose rate was calculated, at this distance, using ionization chambers. Attenuation factors due to the polystyrene flask (0.9923) and the medium (H2O=0.8715) were considered in calculating the exposure period.
After irradiation the cell monolayers were washed again, replenished with growth media, and incubated for 1½ hours. The cell monolayers were then trypsinized and the cells serially diluted, appropriate dilutions were then plated in 60 mm dishes and incubated for 7-9 days at 37° C. and CO2. At the end of this period the cells were stained with crystal violet and the colony forming ability determined by considering 25 or more normal cells as a viable colony. The viabilities were determined and the appropriate survival curves derived. All conditions were done in duplicate using two flasks treated under identical conditions.

[3] = target: deoxycytidine kinase (dCK) (Homo sapiens, UniProt P27707); test: Competition assay for substrates of deoxycytidine kinase, crude extracts of PC-3 cells; details: for inhibition at 250 µM: read-out: % Inhibition (dCK)
deoxycytidine kinase (dCK), sequence (P27707 whole entry): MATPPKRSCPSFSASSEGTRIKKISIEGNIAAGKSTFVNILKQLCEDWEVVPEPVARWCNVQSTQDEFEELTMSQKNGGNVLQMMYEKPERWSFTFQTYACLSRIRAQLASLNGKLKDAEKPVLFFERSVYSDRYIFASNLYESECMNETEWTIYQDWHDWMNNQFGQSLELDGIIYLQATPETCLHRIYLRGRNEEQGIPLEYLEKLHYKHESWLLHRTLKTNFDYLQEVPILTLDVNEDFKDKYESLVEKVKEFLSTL

[4] = competitor 100 μM, substrate 3H-Cytidine 8.3 μM
[5] = competitor 100 μM, substrate 3H-Uridine 16.7 μM
[6] = competitor 250 μM, substrate 3H-Cytidine 8.3 μM
[7] = competitor 250 μM, substrate 3H-Uridine 16.7 μM
[8] = competitor 500 μM, substrate 3H-Cytidine 8.3 μM
[9] = competitor 500 μM, substrate 3H-Uridine 16.7 μM
[10] = competitor 750 μM, substrate 3H-Uridine 16.7 μM
[11] = substrate 3H-Deoxycytidine 25 μM

SMILES: Nc1ccn([C@@H]2O[C@H](CO)[C@@H](O)[C@H]2O)c(=O)n1 [Cytidine]
- % Inhibitation (U/C kinase) (uridine/cytidine kinase; [4]): 66%
- % Inhibitation (U/C kinase) (uridine/cytidine kinase; [5]): 57%
- % Inhibitation (U/C kinase) (uridine/cytidine kinase; [6]): 85%
- % Inhibitation (U/C kinase) (uridine/cytidine kinase; [7]): 89%
- % Inhibitation (U/C kinase) (uridine/cytidine kinase; [8]): 88%
- % Inhibitation (U/C kinase) (uridine/cytidine kinase; [9]): 90%
- % Inhibitation (U/C kinase) (uridine/cytidine kinase; [10]): 96%

SMILES: CNc1nc(=O)n([C@H]2C[C@H](O)[C@@H](CO)O2)cc1F [4-N,methylamino FdC, 4-N, methylamino-5-Fluoro-2′-deoxycytidine]
- substrate for cytidine deaminase (in words) (cytidine deaminase (CD); listed as 4-N, methylamino FdC): poor substrate
- substrate for cytidine deaminase (in words) (cytidine deaminase (CD); listed as 4-N, methylamino-5-Fluoro-2′-deoxycytidine): moderate to poor substrate
- % Inhibition (CD) (cytidine deaminase (CD); substrate 3H-Cytidine 25 μM): 0%
- % Inhibition (CD) (cytidine deaminase (CD); [11]): 4.0%
- effect of thymidine on cytotoxicity (in words) (PC-3 cells [1]; PC-3 cells): antagonized by thymidine
- effect of tetrahydrouridine (H4U) on cytotoxicity / viability (in words) (PC-3 cells [1]; PC-3 cells, listed as 4-N, methylamino FdC): antagonized by tetrahydrouridine
- effect of tetrahydrouridine (H4U) on cytotoxicity / viability (in words) (PC-3 cells [1]; PC-3 cells, listed as 4N, methylFdC): prevented by tetrahydrouridine

SMILES: CNc1nc(=O)n([C@H]2C[C@H](O)[C@@H](CO)O2)cc1Cl [4-N,methylamino CldC, 4-N, methylamino-5-Chloro-2′-deoxycytidine]
- substrate for cytidine deaminase (in words) (cytidine deaminase (CD)): reasonably good substrate
- % Inhibition (CD) (cytidine deaminase (CD); substrate 3H-Cytidine 25 μM): 13%
- % Inhibition (CD) (cytidine deaminase (CD); [11]): 29%
- radiosensitization of PC-3 cells (in words) (PC-3 cells [2]): potent radiosensitizing effect
- effect of tetrahydrouridine (H4U) on radiosensitization (in words) (PC-3 cells [2]): antagonism by tetrahydrouridine
- effect of thymidine on radiosensitization (in words) (PC-3 cells [2]): antagonized by thymidine

SMILES: Nc1nc(=O)n([C@H]2C[C@H](O)[C@@H](CO)O2)cc1Cl [5-Chlorodeoxycytidine, 5-chloro-2′-deoxycytidine, reference compound]
- inhibition at 250 µM (cytidine deaminase (CD); [11]): 42%
- inhibition (cytidine deaminase (CD); substrate 3H-Cytidine 25 μM): 80%
- % Inhibitation (U/C kinase) (uridine/cytidine kinase; [7]): 0%
- % Inhibitation (U/C kinase) (uridine/cytidine kinase; [8]): 5.1%
- inhibition at 250 µM [3]: 72%

SMILES: Nc1nc(=O)n([C@@H]2O[C@H](CO)[C@@H](O)[C@H]2O)cc1Cl [5-Chlorocytidine]
- effect of tetrahydrouridine (H4U) on cytotoxicity / viability (in words) (PC-3 cells [1]; human, 72 h): H4U decreases viability
- substrate for U/C kinase of T24 cells (in words) (uridine/cytidine kinase): moderate substrates
- % Inhibitation (U/C kinase) (uridine/cytidine kinase; [4]): 10%
- % Inhibitation (U/C kinase) (uridine/cytidine kinase; [5]): 2%
- % Inhibitation (U/C kinase) (uridine/cytidine kinase; [6]): 24%
- % Inhibitation (U/C kinase) (uridine/cytidine kinase; [7]): 23%
- radiosensitization of PC-3 cells (in words) (PC-3 cells [2]): radiosensitization
- effect of tetrahydrouridine (H4U) on radiosensitization (in words) (PC-3 cells [2]): decreases radiosensitization

SMILES: O=c1[nH]c(=O)n([C@@H]2O[C@H](CO)[C@@H](O)[C@H]2O)cc1F [5-Fluorouridine]
- % Inhibitation (U/C kinase) (uridine/cytidine kinase; [5]): 56%
- % Inhibitation (U/C kinase) (uridine/cytidine kinase; [7]): 80%

SMILES: O=c1[nH]c(=O)n([C@H]2C[C@H](O)[C@@H](CO)O2)cc1Cl [5-Chlorodeoxyuridine]
- % Inhibitation (U/C kinase) (uridine/cytidine kinase; competitor 200 μM, substrate 3H-Cytidine 8.3 μM): 7.0%
- % Inhibitation (U/C kinase) (uridine/cytidine kinase; [7]): 0%

SMILES: Nc1nc(=O)n([C@H]2C[C@H](O)[C@@H](CO)O2)cc1Br [5-BrdC, 5-Bromo-2′-deoxycytidine]
- substrate for cytidine deaminase (in words) (cytidine deaminase (CD)): good substrates
- inhibition (cytidine deaminase (CD); substrate 3H-Cytidine 25 μM): 50%
- effect of thymidine on radiosensitization (in words) (PC-3 cells [2]): antagonized by thymidine
- substrate for deoxycytidine kinase (in words) ([3]; competition studies, human tumor cell extracts): very poor substrates
- inhibition at 250 µM [3]: 0%

SMILES: O=c1ccn([C@@H]2O[C@H](CO)[C@@H](O)[C@H]2O)c(=O)[nH]1 [Uridine]
- inhibition at 250 µM (cytidine deaminase (CD); [11]): 2%
- % Inhibitation (U/C kinase) (uridine/cytidine kinase; [4]): 59%
- % Inhibitation (U/C kinase) (uridine/cytidine kinase; [5]): 62%
- % Inhibitation (U/C kinase) (uridine/cytidine kinase; [6]): 75%
- % Inhibitation (U/C kinase) (uridine/cytidine kinase; [7]): 80%
- % Inhibitation (U/C kinase) (uridine/cytidine kinase; [8]): 80%
- % Inhibitation (U/C kinase) (uridine/cytidine kinase; [9]): 87%
- % Inhibitation (U/C kinase) (uridine/cytidine kinase; competitor 750 μM, substrate 3H-Cytidine 8.3 μM): 86%
- % Inhibitation (U/C kinase) (uridine/cytidine kinase; [10]): 90%
- inhibition at 250 µM [3]: 0%

SMILES: Nc1nc(=O)n([C@@H]2O[C@H](CO)[C@@H](O)[C@H]2O)cc1F [5-Fluorocytidine]
- % Inhibitation (U/C kinase) (uridine/cytidine kinase; [5]): 34%
- % Inhibitation (U/C kinase) (uridine/cytidine kinase; [6]): 51%
- % Inhibitation (U/C kinase) (uridine/cytidine kinase; [7]): 58%
- % Inhibitation (U/C kinase) (uridine/cytidine kinase; [8]): 66%

SMILES: O=c1[nH]c(=O)n([C@H]2C[C@H](O)[C@@H](CO)O2)cc1I [IdU, 5-Iododeoxyuridine, reference compound]
- effect of tetrahydrouridine (H4U) on cytotoxicity / viability (in words) (PC-3 cells [1]): relative lack of the effect of tetrahydrouridine
- effect of tetrahydrouridine (H4U) on radiosensitization (in words) (PC-3 cells [2]): relative lack of the effect of tetrahydrouridine

SMILES: Cc1cn([C@H]2C[C@H](O)[C@@H](CO)O2)c(=O)nc1N [5-methyldC, reference compound]
- % Inhibition (CD) (cytidine deaminase (CD); substrate 3H-Cytidine 25 μM): 30%

SMILES: O=c1[nH]c(=O)n(COCCO)cc1Cc1ccccc1 [5-Benzacyclouridine]
- % Inhibitation (U/C kinase) (uridine/cytidine kinase; competitor 1500 μM, substrate 3H-Cytidine 8.3 μM): 0%
- % Inhibitation (U/C kinase) (uridine/cytidine kinase; competitor 1500 μM, substrate 3H-Uridine 16.7 μM): 7.0%

SMILES: O=c1ccn([C@H]2C[C@H](O)[C@@H](CO)O2)c(=O)[nH]1 [Deoxyuridine]
- % Inhibitation (U/C kinase) (uridine/cytidine kinase; [7]): 0** %

SMILES: Nc1nc(=O)n([C@H]2C[C@H](O)[C@@H](CO)O2)cc1F [5-Fluorodeoxycytidine, reference compound]
- inhibition at 250 µM (cytidine deaminase (CD); [11]): 50%
- inhibition (cytidine deaminase (CD); substrate 3H-Cytidine 25 μM): 83%
- % Inhibitation (U/C kinase) (uridine/cytidine kinase; [8]): 4.8%
- inhibition at 250 µM [3]: 90%

SMILES: Nc1ccn([C@H]2C[C@H](O)[C@@H](CO)O2)c(=O)n1 [Deoxycytidine]
- inhibition at 250 µM (cytidine deaminase (CD); [11]): 66%
- % Inhibitation (U/C kinase) (uridine/cytidine kinase; [6]): 10%
- % Inhibitation (U/C kinase) (uridine/cytidine kinase; [7]): 0%
- % Inhibitation (U/C kinase) (uridine/cytidine kinase; [8]): 20%

Reference: patent US8252768B2, “Designer therapy of pancreatic tumors” (University of Miami, priority 2006, dated 2012)
